# Data published in article PMC7827406, “Structure–Activity Relationship (SAR) Study of Spautin-1 to Entail the Discovery of Novel NEK4 Inhibitors” (International Journal of Molecular Sciences, 2021).
# Where two headings read alike, the source gives them in different places.
# Columns and labels:
# Assay in all cases: biochemical
# Set-up in all cases: Eurofins KinaseProfiler full panel at Km ATP, residual kinase activity (%) relative to DMSO
# CDK5/p25(h) = molecular target: T1, CDK5/p25(h) (Homo sapiens, UniProt Q00535)
# T1 construct: p25
# Summary of the method: (§1)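 Two 10 µM single-concentration screens were run: a competition-binding screen, in which DNA-tagged kinase bound to immobilized ligands was quantified by qPCR, and a radiometric activity panel at Km ATP. Each is expressed as residual kinase activity (%).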
# [1] = molecular target: T2, PI3 Kinase (p110a/p65a)(h) (Homo sapiens, UniProt P42336)
# T2 construct: gene PIK3CA; with p65a
# Summary of the method: as §1
# ARK5(h) = molecular target: T3, ARK5(h) (Homo sapiens, UniProt O60285)
# T3 construct: gene NUAK1
# T3 sequence (O60285 1-661): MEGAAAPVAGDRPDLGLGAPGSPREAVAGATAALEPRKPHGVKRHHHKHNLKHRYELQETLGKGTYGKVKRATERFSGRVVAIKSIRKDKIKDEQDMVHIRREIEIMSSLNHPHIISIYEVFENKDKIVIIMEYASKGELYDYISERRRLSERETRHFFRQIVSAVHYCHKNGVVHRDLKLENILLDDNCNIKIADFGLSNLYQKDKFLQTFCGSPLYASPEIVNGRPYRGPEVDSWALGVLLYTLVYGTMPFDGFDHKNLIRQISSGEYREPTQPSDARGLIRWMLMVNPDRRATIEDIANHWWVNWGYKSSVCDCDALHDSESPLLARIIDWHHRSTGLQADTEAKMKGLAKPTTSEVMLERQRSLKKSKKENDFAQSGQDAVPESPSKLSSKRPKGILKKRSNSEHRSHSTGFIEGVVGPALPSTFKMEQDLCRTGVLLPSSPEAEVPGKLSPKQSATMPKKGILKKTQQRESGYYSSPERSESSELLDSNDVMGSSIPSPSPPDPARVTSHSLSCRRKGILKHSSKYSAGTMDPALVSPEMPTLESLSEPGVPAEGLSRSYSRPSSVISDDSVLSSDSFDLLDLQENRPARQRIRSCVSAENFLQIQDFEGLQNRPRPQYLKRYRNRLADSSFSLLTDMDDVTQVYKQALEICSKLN
# Summary of the method: as §1
# CDK12/cyclinK(h) = CDK12/cyclinK(h) (Homo sapiens, UniProt Q9NYV4)
# Summary of the method: as §1
# Lck(h) = Lck(h) (Homo sapiens, UniProt P06239)
# Summary of the method: as §1
# GRK2(h) = molecular target: T4, GRK2(h) (Homo sapiens, UniProt P25098)
# T4 sequence (P25098 1-689): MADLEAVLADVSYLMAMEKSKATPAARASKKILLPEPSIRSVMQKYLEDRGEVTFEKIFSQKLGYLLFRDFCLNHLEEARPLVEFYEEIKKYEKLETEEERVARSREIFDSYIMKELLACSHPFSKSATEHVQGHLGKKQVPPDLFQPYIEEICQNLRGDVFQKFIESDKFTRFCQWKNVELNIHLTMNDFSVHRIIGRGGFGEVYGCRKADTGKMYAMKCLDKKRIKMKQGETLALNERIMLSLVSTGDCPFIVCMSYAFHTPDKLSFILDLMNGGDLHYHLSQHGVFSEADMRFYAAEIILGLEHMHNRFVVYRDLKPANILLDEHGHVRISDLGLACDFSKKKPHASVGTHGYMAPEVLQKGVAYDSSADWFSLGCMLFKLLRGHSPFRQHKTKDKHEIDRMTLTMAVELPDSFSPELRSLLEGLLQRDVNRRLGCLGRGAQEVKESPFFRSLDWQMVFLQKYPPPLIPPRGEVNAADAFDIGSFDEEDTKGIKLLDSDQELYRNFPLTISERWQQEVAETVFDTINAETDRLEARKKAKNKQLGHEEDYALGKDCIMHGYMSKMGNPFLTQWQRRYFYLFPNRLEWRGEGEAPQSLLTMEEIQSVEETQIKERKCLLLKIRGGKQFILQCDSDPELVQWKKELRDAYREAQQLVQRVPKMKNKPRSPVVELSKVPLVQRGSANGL
# Summary of the method: as §1
# ROCK-II(r) = molecular target: T5, ROCK-II(r) (Rattus norvegicus, UniProt Q62868)
# T5 construct: gene Rock2
# Summary of the method: as §1
# [2] = read-out: Residual activity (%) 5ay
# [3] = read-out: Residual activity (%) Spautin-1 5aa
# [4] = read-out: Residual activity (%) 5at
# [5] = read-out: Residual activity (%) 5as
# Chain of Lck(h) (P06239 whole entry): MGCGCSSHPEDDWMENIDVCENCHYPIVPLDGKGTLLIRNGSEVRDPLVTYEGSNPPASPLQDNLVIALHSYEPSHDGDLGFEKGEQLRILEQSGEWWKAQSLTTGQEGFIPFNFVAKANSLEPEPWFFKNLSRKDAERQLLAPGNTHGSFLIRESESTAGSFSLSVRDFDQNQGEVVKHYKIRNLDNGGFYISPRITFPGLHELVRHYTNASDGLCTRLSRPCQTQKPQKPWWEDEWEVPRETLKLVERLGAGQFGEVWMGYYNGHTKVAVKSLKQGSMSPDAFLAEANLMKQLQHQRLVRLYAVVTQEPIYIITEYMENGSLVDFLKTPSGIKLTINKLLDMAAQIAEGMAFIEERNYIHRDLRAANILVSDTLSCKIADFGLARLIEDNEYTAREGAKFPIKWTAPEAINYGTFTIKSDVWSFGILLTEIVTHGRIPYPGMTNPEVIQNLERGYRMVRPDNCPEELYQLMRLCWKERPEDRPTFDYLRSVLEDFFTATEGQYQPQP
# T5 sequence (Q62868 whole entry): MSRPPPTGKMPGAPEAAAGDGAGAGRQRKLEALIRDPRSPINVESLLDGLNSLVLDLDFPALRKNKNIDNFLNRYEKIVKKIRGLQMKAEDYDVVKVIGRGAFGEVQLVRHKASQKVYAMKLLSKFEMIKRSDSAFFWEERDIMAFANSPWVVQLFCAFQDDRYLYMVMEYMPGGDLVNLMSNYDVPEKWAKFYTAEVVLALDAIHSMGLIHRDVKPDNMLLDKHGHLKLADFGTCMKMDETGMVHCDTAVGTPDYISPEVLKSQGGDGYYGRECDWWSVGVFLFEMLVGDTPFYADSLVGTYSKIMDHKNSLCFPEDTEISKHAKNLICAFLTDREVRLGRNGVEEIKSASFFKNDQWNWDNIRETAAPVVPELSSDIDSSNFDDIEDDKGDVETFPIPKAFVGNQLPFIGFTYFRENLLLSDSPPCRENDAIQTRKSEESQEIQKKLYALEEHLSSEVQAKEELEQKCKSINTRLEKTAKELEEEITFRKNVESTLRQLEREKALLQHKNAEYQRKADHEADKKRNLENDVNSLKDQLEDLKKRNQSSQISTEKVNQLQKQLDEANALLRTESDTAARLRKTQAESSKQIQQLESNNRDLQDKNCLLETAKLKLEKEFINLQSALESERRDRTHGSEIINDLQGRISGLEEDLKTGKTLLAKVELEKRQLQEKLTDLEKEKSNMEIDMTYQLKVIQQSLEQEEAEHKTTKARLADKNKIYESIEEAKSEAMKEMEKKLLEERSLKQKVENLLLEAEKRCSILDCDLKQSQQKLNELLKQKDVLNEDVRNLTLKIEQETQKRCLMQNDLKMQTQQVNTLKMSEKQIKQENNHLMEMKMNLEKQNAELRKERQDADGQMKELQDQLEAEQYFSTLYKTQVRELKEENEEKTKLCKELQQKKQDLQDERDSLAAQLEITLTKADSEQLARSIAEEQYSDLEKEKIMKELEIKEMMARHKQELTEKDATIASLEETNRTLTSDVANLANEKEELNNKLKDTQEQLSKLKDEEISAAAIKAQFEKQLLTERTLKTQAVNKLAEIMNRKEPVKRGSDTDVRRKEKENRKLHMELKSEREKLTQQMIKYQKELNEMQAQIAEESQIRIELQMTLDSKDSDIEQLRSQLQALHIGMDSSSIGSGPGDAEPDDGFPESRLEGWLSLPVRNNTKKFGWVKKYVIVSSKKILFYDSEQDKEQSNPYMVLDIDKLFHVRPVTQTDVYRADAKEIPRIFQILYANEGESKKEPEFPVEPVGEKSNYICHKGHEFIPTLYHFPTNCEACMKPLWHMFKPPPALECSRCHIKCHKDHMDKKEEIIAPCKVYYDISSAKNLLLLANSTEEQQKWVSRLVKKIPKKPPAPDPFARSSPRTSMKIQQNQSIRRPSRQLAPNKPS
# T1 sequence (Q00535 whole entry): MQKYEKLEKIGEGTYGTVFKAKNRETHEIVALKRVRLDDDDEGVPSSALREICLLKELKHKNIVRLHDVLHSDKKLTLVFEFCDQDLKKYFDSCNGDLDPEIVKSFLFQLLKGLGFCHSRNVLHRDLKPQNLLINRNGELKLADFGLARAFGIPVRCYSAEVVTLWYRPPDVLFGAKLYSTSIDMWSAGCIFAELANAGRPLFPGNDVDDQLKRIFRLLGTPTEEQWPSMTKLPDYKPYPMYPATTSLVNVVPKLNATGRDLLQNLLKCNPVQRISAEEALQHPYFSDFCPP
# T1 sequence (Q15078 whole entry partner): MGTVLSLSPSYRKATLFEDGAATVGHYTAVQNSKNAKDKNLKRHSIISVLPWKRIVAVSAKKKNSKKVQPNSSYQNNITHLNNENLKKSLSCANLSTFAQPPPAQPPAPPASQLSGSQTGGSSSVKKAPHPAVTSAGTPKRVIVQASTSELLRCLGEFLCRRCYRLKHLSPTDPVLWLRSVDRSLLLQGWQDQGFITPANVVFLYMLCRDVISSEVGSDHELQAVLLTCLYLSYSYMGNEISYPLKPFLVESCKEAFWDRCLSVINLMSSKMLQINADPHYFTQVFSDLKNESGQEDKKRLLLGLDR
# T2 sequence (P42336 whole entry): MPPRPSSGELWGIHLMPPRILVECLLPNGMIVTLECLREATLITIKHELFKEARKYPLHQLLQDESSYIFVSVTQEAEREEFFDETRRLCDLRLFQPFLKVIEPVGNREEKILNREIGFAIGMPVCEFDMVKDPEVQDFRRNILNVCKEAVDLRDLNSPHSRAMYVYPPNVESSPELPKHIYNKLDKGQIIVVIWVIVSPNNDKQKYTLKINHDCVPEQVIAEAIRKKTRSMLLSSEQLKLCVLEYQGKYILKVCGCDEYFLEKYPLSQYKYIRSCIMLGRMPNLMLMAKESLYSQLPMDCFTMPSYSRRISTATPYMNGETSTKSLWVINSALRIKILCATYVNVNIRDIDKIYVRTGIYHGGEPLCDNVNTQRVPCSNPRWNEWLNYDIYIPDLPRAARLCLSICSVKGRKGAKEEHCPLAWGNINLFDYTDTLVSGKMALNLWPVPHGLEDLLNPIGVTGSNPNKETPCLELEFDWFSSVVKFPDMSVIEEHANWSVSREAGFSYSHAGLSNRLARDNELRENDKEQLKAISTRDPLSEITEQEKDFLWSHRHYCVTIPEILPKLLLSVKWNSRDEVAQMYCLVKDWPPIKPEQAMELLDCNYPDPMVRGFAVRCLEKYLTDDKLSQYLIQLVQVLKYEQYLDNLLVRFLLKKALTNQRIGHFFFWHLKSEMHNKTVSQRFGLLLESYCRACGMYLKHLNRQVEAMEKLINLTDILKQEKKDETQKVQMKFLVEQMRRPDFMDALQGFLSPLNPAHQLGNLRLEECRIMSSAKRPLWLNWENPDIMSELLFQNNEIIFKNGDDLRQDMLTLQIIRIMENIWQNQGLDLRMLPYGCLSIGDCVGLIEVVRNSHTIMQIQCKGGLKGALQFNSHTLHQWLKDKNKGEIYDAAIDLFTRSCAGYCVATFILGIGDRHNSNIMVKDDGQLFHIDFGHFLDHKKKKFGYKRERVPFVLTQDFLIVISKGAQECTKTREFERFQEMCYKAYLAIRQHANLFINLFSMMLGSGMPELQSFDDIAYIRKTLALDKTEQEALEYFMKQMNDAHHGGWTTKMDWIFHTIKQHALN
# T2 sequence (P27986 whole entry partner): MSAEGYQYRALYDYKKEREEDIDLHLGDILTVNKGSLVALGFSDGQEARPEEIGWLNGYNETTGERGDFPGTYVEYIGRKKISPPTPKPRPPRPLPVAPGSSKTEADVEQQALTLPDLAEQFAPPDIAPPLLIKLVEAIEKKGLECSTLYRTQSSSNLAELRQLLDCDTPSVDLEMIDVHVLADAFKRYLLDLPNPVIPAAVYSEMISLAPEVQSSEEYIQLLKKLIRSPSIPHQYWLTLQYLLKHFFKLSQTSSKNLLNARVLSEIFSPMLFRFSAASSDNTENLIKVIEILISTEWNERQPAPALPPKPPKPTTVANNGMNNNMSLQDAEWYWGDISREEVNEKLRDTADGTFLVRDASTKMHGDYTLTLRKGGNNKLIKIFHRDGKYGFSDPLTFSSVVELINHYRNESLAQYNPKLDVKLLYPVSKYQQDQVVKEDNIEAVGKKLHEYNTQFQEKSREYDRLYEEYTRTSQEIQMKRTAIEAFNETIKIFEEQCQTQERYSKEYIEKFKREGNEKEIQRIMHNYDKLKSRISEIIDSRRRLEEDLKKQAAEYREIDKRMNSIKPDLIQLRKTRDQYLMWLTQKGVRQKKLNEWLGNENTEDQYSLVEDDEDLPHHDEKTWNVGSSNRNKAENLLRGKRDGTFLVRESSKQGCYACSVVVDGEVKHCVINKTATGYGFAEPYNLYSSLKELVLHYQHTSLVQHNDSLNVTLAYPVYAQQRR
smiles,measurement,setting,value
"COc1ccc2ncnc(Nc3cccc(F)c3)c2c1 [5ay, N-(3-Fluorophenyl)-6-Methoxy-4-Quinazolinamine]",remaining activity at 10 µM,CDK5/p25(h); [2],80%
same,remaining activity at 10 µM,[1]; [2],91%
same,remaining activity at 10 µM,ARK5(h); [2],93%
same,remaining activity at 10 µM,CDK12/cyclinK(h); [2],69%
same,remaining activity at 10 µM,Lck(h); [2],78%
same,remaining activity at 10 µM,GRK2(h); [2],95%
same,remaining activity at 10 µM,ROCK-II(r); [2],98%
"Fc1ccc(CNc2ncnc3ccc(F)cc23)cc1 [5aa, 6-Fluoro-N-(4-fluorobenzyl)-4-Quinazolinamine]",remaining activity at 10 µM,CDK5/p25(h); [3],73%
same,remaining activity at 10 µM,[1]; [3],98%
same,remaining activity at 10 µM,ARK5(h); [3],99%
same,remaining activity at 10 µM,CDK12/cyclinK(h); [3],84%
same,remaining activity at 10 µM,Lck(h); [3],90%
same,remaining activity at 10 µM,GRK2(h); [3],107%
same,remaining activity at 10 µM,ROCK-II(r); [3],90%
"Fc1ccc2ncnc(NCCc3ccc(Cl)cc3)c2c1 [5at, N-[2-(4-Chlorophenyl)Ethyl]-6-Fluoro-4-Quinazolinamine]",remaining activity at 10 µM,CDK5/p25(h); [4],86%
same,remaining activity at 10 µM,[1]; [4],94%
same,remaining activity at 10 µM,ARK5(h); [4],105%
same,remaining activity at 10 µM,CDK12/cyclinK(h); [4],93%
same,remaining activity at 10 µM,Lck(h); [4],82%
same,remaining activity at 10 µM,GRK2(h); [4],107%
same,remaining activity at 10 µM,ROCK-II(r); [4],103%
"Fc1ccc(CCNc2ncnc3ccc(F)cc23)cc1 [5as, 6-Fluoro-N-[2-(4-Fluorophenyl)Ethyl]-4-Quinazolinamine]",remaining activity at 10 µM,CDK5/p25(h); [5],89%
same,remaining activity at 10 µM,[1]; [5],95%
same,remaining activity at 10 µM,ARK5(h); [5],101%
same,remaining activity at 10 µM,CDK12/cyclinK(h); [5],72%
same,remaining activity at 10 µM,Lck(h); [5],94%
same,remaining activity at 10 µM,GRK2(h); [5],101%
same,remaining activity at 10 µM,ROCK-II(r); [5],105%
